In brackets after ≈: the same amount, converted by molar mass. Where a SMILES comes first, the peptide text is derived from it. [ ]: non-standard residue; d: D form.
Experiments:
GBS Δlgt Δlsp mutant = experiment: MIC90 by dilution method, GBS Δlgt Δlsp; type: cell-based, Streptococcus agalactiae; conditions: Todd-Hewitt broth with 100 mM HEPES, 2×10^6 CFU, 96-well polypropylene microplate, overnight 37°C, OD600 nm; average of triplicate measurements
Procedure: (§1) The MICs of each antimicrobial peptide were tested in Todd-Hewitt broth (THB) buffered with 100 mM HEPES in 96-well polypropylene microplates (Costar, Cambridge, MA) by a dilution method. Bacteria (2×10^6 CFU) were added in triplicates to wells containing increasing concentrations of the antimicrobial peptides. Plates were incubated at 37°C with shaking overnight and then read (OD600 nm) using microplate reader (Labsystems Multiskanat) for bacterial growth. The MICs90 was considered to be the peptide concentration that inhibited 90% growth.

GBS ΔcpsD mutant = experiment: MIC90 by dilution method, GBS ΔcpsD; type: cell-based, Streptococcus agalactiae; conditions: Todd-Hewitt broth with 100 mM HEPES, 2×10^6 CFU, 96-well polypropylene microplate, overnight 37°C, OD600 nm; average of triplicate measurements
Procedure: as §1

GBS ΔdltA mutant = experiment: MIC90 by dilution method, GBS ΔdltA; type: cell-based, Streptococcus agalactiae; conditions: Todd-Hewitt broth with 100 mM HEPES, 2×10^6 CFU, 96-well polypropylene microplate, overnight 37°C, OD600 nm; average of triplicate measurements
Procedure: as §1

[1] = RP-HPLC hydrophobicity (% AcN at elution); type: physicochemical; conditions: chromatographic, C4 reverse analytical column; eluted in 40 min, linear gradient of acetonitrile 30 to 70% v/v in water containing TFA (0.05% v/v)
Procedure: The procedure conducted as described previously. Briefly, peptides were synthesized using the Fmoc solid phase method on Rink amide resin ([…]). For fluorescent labeling of the N-terminus of the peptides, resin-bound peptides were treated with NBD or rhodamine dissolved in dimethyl formamide (DMF), washed thoroughly with DMF and then with methylene chloride, dried and then cleaved. […] The peptides were subjected to amino acid and mass spectrometry analysis to confirm their composition.

GBS ΔsrtA mutant = experiment: MIC90 by dilution method, GBS ΔsrtA; type: cell-based, Streptococcus agalactiae; conditions: Todd-Hewitt broth with 100 mM HEPES, 2×10^6 CFU, 96-well polypropylene microplate, overnight 37°C, OD600 nm; average of triplicate measurements
Procedure: as §1

GBS NEM316 WT strain = type: cell-based, Streptococcus agalactiae; conditions: Todd-Hewitt broth with 100 mM HEPES, 2×10^6 CFU, 96-well polypropylene microplate, overnight 37°C, OD600 nm; average of triplicate measurements
Procedure: as §1

GBS WT and dltA strains = experiment: SYTOX green uptake assay (membrane perforation); type: cell-based, Streptococcus agalactiae; conditions: 30 min exposure, 1 µM SYTOX green, sodium phosphate buffer 20 mM pH 7.4, excitation 485 nm, emission 520 nm; triplicates
Text: To determine whether altered susceptibility to CAMPs correlates with changes in membrane permeability, we measured the entrance of the cationic dye SYTOX green into the WT and dltA strains. SYTOX green cannot enter intact bacteria unless the membrane is disrupted by external compounds. Upon penetration into bacteria and binding to intracellular nucleic acids, its signal increases drastically. A dose-dependent enhancement of signal intensity was found following exposure to selected CAMPs.
Figure 2 Susceptibility of GBS strains to perforation by CAMPs. Peptide-dependent influx of the vital dye SYTOX green following 30 min exposure of GBS to magainin 2 (A), LL-37 (B), 5D-K6L9 (C) and K5L7 (D). Solid lines represent the WT strain whereas dashed lines represent the dltA muatnt. All readings were normalized by subtracting the basal fluorescence of the dye. Data are means ± SD of triplicate measurements.
Bacteria were washed twice, resuspended in sodium phosphate buffer (SPB, 20 mM, pH 7.4), and incubated with 1 µM SYTOX green for 20 min in the dark with agitation. Bacteria were added to a 96 well black plate (Nunc, Denmark) containing increasing concentrations of CAMPs and the increase in fluorescence, due to penetration and binding of the dye to intracellular DNA, was immediately monitored (excitation of 485 nm and emission of 520 nm). […]

GBS ΔmprF mutant = experiment: MIC90 by dilution method, GBS ΔmprF; type: cell-based, Streptococcus agalactiae; conditions: Todd-Hewitt broth with 100 mM HEPES, 2×10^6 CFU, 96-well polypropylene microplate, overnight 37°C, OD600 nm; average of triplicate measurements
Procedure: as §1

CC(C)C[C@H](NC(=O)[C@H](CC(C)C)NC(=O)[C@@H](CCCCN)NC(=O)[C@H](CC(C)C)NC(=O)[C@H](CC(C)C)NC(=O)[C@H](CCCCN)NC(=O)[C@@H](CCCCN)NC(=O)[C@@H](CC(C)C)NC(=O)[C@H](CC(C)C)NC(=O)[C@@H](CCCCN)NC(=O)[C@H](CCCCN)NC(=O)[C@H](CC(C)C)NC(=O)[C@@H](CC(C)C)NC(=O)[C@H](CCCCN)NC(=O)[C@@H](N)CC(C)C)C(N)=O [5D-K6L9] (H-LK[dL]LK[dK]L[dL][dK]KLL[dK]LL-NH2; N-terminus assumed)
MIC90, Δlgt Δlsp (GBS Δlgt Δlsp mutant): 4.4 µM (≈ 7.94 µg/mL)
MIC90, ΔcpsD (GBS ΔcpsD mutant): 4.4 µM (≈ 7.94 µg/mL)
MIC90, ΔdltA (GBS ΔdltA mutant): 2.2 µM (≈ 3.97 µg/mL)
Hydrophobicity (% AcN) [1]: 55.6 % AcN
MIC90, ΔsrtA (GBS ΔsrtA mutant): 4.4 µM (≈ 7.94 µg/mL)
MIC90, WT (GBS NEM316 WT strain): 4.4 µM (≈ 7.94 µg/mL)
SYTOX green influx signal, dltA mutant compared to WT (GBS WT and dltA strains): similarly active on both strains
MIC90, ΔmprF (GBS ΔmprF mutant): 4.4 µM (≈ 7.94 µg/mL)

— PMC3435245, “D-Alanylation of Lipoteichoic Acids Confers Resistance to Cationic Peptides in Group B Streptococcus by Increasing the Cell Wall Density” (PLoS Pathogens, 2012)
